Experimental data from US20170029355A1, “LABILE ESTERS OF AGROCHEMICALS FOR CONTROLLED RELEASE AND REDUCTION OF OFF-SITE MOVEMENT” (Monsanto Technology LLC, priority 2011, published 2017).

Legend:
velvetleaf [1] = assay: Greenhouse post-emergent control of velvetleaf by emulsifiable concentrates (Example 29); assay type: in vivo; conditions: three weeks after treatment; for % Control of velvetleaf, 140 g/ha: 140 g dicamba equivalent per hectare; for % Control of velvetleaf, 280 g/ha: 280 g dicamba equivalent per hectare; for % Control of velvetleaf, 420 g/ha: 420 g dicamba equivalent per hectare; for % Control of velvetleaf, 560 g/ha: 560 g dicamba equivalent per hectare
Method: (§1) The efficacy of some photo-labile ester formulations from Example 28 for post-emergent control of velvetleaf was tested in the greenhouse. All formulations were tested at rates of 140, 280, 420, and 560 g dicamba equivalent per hectare rates and compared to the diglycolamine salt of dicamba (CLARITY®) at the same rates and untreated control plants. The velvetleaf plants were 10-15 cm in height at the time of spraying. Percent control was evaluated three weeks after treatment.

velvetleaf [2] = assay: Greenhouse post-emergent control of velvetleaf by emulsifiable concentrates (Example 30); assay type: in vivo
Method: as §1
The methodology of Example 29 was used to evaluate the efficacy of several photo-labile esters of dicamba for post-emergent control of velvetleaf as emulsifiable concentrate formulations described in Example 28.

[3] = test system: glyphosate-tolerant, dicamba-sensitive soy plants; assay: Humidome volatility injury to dicamba-sensitive plants (Example 31); conditions: in vivo
Excerpt: In this case, the diglycolamine salt of dicamba (CLARITY®) was used for comparison.
Dicamba photo-labile ester formulations from Example 28 were mixed with a commercial glyphosate formulation (ROUNDUP POWERMAX®) and diluted to provide a solution with a 0.5% dicamba equivalent concentrate of the ester (or dicamba diglycolamine salt) and 1.5% concentrate of glyphosate. The mixtures were sprayed at a 10 gallon per acre (93.5 liters per hectare) rate on soil in a plastic container (“humidome”) with a transparent lid. One soil container was sprayed with water as a control. Four glyphosate-tolerant, dicamba-sensitive soy plants between V2 and V3 stage were immediately placed on the sprayed soil and the domes attached to the trays with binder clips. The soy plants were in pots placed directly on the soil but with aluminum foil wrapped around the bottom to prevent uptake of dicamba or dicamba esters through the roots.
The closed containers were held for 24 hours in a growth chamber which was maintained at 35° C. with 40% relative humidity. The plants were then removed and grown in a greenhouse for three weeks. At this time plant injury and growth stage were assessed compared to the control treated with water only.

soybeans = assay: Humidome volatility injury, ester 32a emulsifiable concentrate (Example 32); conditions: in vivo
Excerpt: […] The mixtures were sprayed at a 10 gallon per acre (93.5 liters per hectare) rate on soil in a plastic container (“humidome”) with a transparent lid. One soil container was sprayed with water as a control. Four glyphosate-tolerant, dicamba-sensitive soy plants between V2 and V3 stage were immediately placed on the sprayed soil and the domes attached to the trays with binder clips. The soy plants were in pots placed directly on the soil but with aluminum foil wrapped around the bottom to prevent uptake of dicamba or dicamba esters through the roots.
The closed containers were held for 24 hours in a growth chamber which was maintained at 35° C. with 40% relative humidity. […] At this time plant injury and growth stage were assessed compared to the control treated with water only.

[4] = Field dicamba volatility, airborne dicamba collected by air samplers (Example 34); assay type: physicochemical; conditions: field plot, 0.5 lb/acre dicamba a.e. with ROUNDUP WEATHERMAX, airborne dicamba collected over 24 hours, maximum 86° F.
velvetleaf [5] = assay: Greenhouse post-emergent control of velvetleaf by emulsifiable concentrates (Example 37); assay type: in vivo; conditions: greenhouse, Example 37
How it was run: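 Photo-labile dicamba ester emulsifiable concentrates sprayed post-emergence in the greenhouse on velvetleaf 10-15 cm tall at 140, 280, 420 and 560 g dicamba equivalent per hectare. Percent control scored three weeks after treatment.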

hemp sesbania [6] = assay: Field testing of emulsifiable concentrates, post-emergent control (Example 38); assay type: in vivo; conditions: for % control, 280 g/ha, Hemp sesbania: 280 g dicamba acid equivalent per hectare; for % control, 280 g/ha, Hemp sesbania / % control, 420 g/ha, Hemp sesbania: 11 or 21 days after treatment; for % control, 420 g/ha, Hemp sesbania: 420 g dicamba acid equivalent per hectare
Excerpt: (§2) Four dicamba esters, 1a, 2, 9, and 13a, were formulated as emulsifiable concentrates for field testing. All formulations contained 5% each of a alkylbenzene sulfonate calcium salt (Huntsman NANSA EVM 62/H or Akzo Nobel WITCONATE P-1220 EH) and castor oil ethoxylate (Huntsman SURFONIC CO-54) as the emulsifiers and Aromatic 200 (Exxon) or monochlorobenzene (MCB) as the solvent.
(§3) The esters were compared to the diglycolamine salt of dicamba (CLARITY™) for post-emergent control of three broadleaf weeds: velvetleaf, morning glory, and hemp sesbania. Rates of 280 and 420 g dicamba acid equivalent per hectare were used. […] Evaluations were conducted at 11 or 21 days after treatment. Locations and timing were identical for all formulations tested.

morning glory [7] = assay: as above; assay type: in vivo; conditions: for % control, 280 g/ha, Morning glory: 280 g dicamba acid equivalent per hectare; for % control, 280 g/ha, Morning glory / % control, 420 g/ha, Morning glory: 11 or 21 days after treatment; for % control, 420 g/ha, Morning glory: 420 g dicamba acid equivalent per hectare
Excerpt: as §2, §3

velvetleaf [8] = assay: as above; assay type: in vivo; conditions: for % control, 280 g/ha, Velvetleaf: 280 g dicamba acid equivalent per hectare; for % control, 280 g/ha, Velvetleaf / % control, 420 g/ha, Velvetleaf: 11 or 21 days after treatment; for % control, 420 g/ha, Velvetleaf: 420 g dicamba acid equivalent per hectare
Excerpt: as §2, §3

Euphorbia species = assay: Field testing for post-emergent activity in the Southern Hemisphere (Example 39); assay type: in vivo; conditions: 9 as suspension concentrate, other esters as emulsifiable concentrates; for % control, 0.25 lb/ac (0.28 kg/hectare): 0.25 lb dicamba a.e. per acre; for % control, 0.50 lb/ac (0.56 kg/hectare): 0.50 lb dicamba a.e. per acre
Method: The primary weeds were Euphorbia species. Ester 9 was tested as a suspension concentrate using the formulation of Example 33 The other esters were tested as emulsifiable concentrates having the formulations shown in the table below. Akzo Nobel SPONTO EC 334 and SPONTO EC 336 along with SURFONIC CO-54 and […] (Huntsman) were used as emulsifiers and Aromatic 200 (A 200; Exxon) was used as the solvent. […] The diglycolamine salt of dicamba (CLARITYTM) was used as a comparator.

hemp sesbania [9] = assay: Field testing of emulsifiable concentrates, post-emergent control (Example 40); assay type: in vivo
Method: (§4) Three dicamba esters, 30a, 32a, and 36a, were formulated as emulsifiable concentrates for field testing. All surfactants are commercial materials from Stepan.
(§5) The formulations were tested in the field. Locations and timing were identical for the three esters, but differed slightly for the diglycolamine control. The esters were compared to the diglycolamine salt of dicamba (CLARITY™) for post-emergent control of three broadleaf weeds: velvetleaf, morning glory, and hemp sesbania. Rates of 280 and 560 g dicamba acid equivalent per hectare were used.

morning glory [10] = assay: as above; assay type: in vivo
Method: as §4, §5

velvetleaf [11] = assay: as above; assay type: in vivo
Method: as §4, §5

[12] = In vitro dicamba photo-release from photo-labile dicamba esters, tetrahydrofuran solvent (Example 26); assay type: physicochemical
Method: This Example describes in vitro testing of dicamba photo-release by homogeneous solutions of photo-labile dicamba esters. The esters were dissolved in tetrahydrofuran (THF). Ester concentration was 0.1 mM. 25 ml of the solution was transferred to 22 mm tubes fabricated from graded seal quartz tubing with a 19/22 tapered seal at the top, which was closed with a tapered glass plug and secured with a plastic ring clamp. The solution was entirely below the quartz-to-glass transition, ensuring that the entire volume was exposed to the full spectrum.
The sealed tubes were placed in a Growth Chamber where they were exposed to simulated sunlight for 14 hours per day at 35° C. Dicamba concentrations in the solution were measured during the course of the photolysis.
A sample of the initial solution was reserved in a glass vial away from the light source and analyzed at the conclusion of the study, providing a measurement of the amount of dicamba present without illumination of the photolysis solution (the “dark control”).

[13] = Solubility of the esters (statements of the description); assay type: physicochemical; conditions: qualitative
[14] = Photolysis / cleavage of the esters to dicamba (statements of the description); assay type: physicochemical; conditions: qualitative
Excerpt: The efficacy of the photolabile esters can be assayed in vitro, or in greenhouse or field experiments. A useful in vitro assay for post-emergent activity involves photolysis of a dilute solution of the esters using simulated sunlight. This is conveniently achieved by photolysis of a solution of the ester in an organic solvent which is miscible with water and to which some water has been added. As described in the Examples, photolysis in acetonitrile or tetrahydrofuran containing 10% water by weight is effective. Low concentrations of the ester should be used so that the entire volume is exposed to sunlight. Since the maximum extinction coefficient of the typical esters above 220 nm is in the range of 1000-10,000 M^−1 cm^−1, a concentration of 0.1 mM is effective. Photolysis in a quartz tube exposed to simulated or actual sunlight is a typical protocol.

broadleaf weeds = assay: Control of broadleaf weeds by ester concentrates (statements of the description); assay type: in vivo; conditions: emulsifiable and suspension concentrates; Sesbania macrocarpa, morning glory, velvetleaf, Palmer amaranth, fat hen, sicklepod
[15] = 280 g dicamba acid equivalent per hectare
[16] = 560 g dicamba acid equivalent per hectare
[17] = 280 and 420 g dicamba acid equivalent per hectare

## COc1c(Cl)ccc(Cl)c1C(=O)O.NCCOCCO [Diglycolamine salt, diglycolamine salt of dicamba, reference compound]
Velvetleaf [1]
  % Control of velvetleaf, 140 g/ha: 44%
  % Control of velvetleaf, 280 g/ha: 63%
  % Control of velvetleaf, 420 g/ha: 68%
  % Control of velvetleaf, 560 g/ha: 83%
Velvetleaf [2]; 140 g/ha
  % Control of velvetleaf, 140 g/ha: 54%
Velvetleaf [2]; 280 g/ha
  % Control of velvetleaf, 280 g/ha: 86%
Velvetleaf [2]; 420 g/ha
  % Control of velvetleaf, 420 g/ha: 96%
Velvetleaf [2]; 560 g/ha
  % Control of velvetleaf, 560 g/ha: 96%
[3]
  Growth Stage: 6
soybeans
  average injury to soybeans: 60%
[4]
  average dicamba level from the five air samplers: 11.1 ng/m^3
Velvetleaf [5]; 140 g/ha
  % Control of velvetleaf, 140 g/ha: 43.3%
Velvetleaf [5]; 280 g/ha
  % Control of velvetleaf, 280 g/ha: 65.8%
Velvetleaf [5]; 420 g/ha
  % Control of velvetleaf, 420 g/ha: 87.5%
Velvetleaf [5]; 560 g/ha
  % Control of velvetleaf, 560 g/ha: 90.0%
Hemp sesbania [6]
  % control, 280 g/ha, Hemp sesbania: 81%
  % control, 420 g/ha, Hemp sesbania: 88%
Morning glory [7]
  % control, 280 g/ha, Morning glory: 100%
  % control, 420 g/ha, Morning glory: 100%
Velvetleaf [8]
  % control, 280 g/ha, Velvetleaf: 87%
  % control, 420 g/ha, Velvetleaf: 91%
Euphorbia species
  % control, 0.25 lb/ac (0.28 kg/hectare): 53%
  % control, 0.50 lb/ac (0.56 kg/hectare): 70%
Hemp sesbania [9]; [15]
  % control 19 days after treatment, 280 g/ha, Hemp sesbania: 89 ± 5%
Hemp sesbania [9]; [16]
  % control 19 days after treatment, 560 g/ha, Hemp sesbania: 96 ± 2%
Morning glory [10]; [15]
  % control 19 days after treatment, 280 g/ha, Morning glory: 89 ± 11%
Morning glory [10]; [16]
  % control 19 days after treatment, 560 g/ha, Morning glory: 94 ± 12%
Velvetleaf [11]; [15]
  % control 19 days after treatment, 280 g/ha, Velvetleaf: 78 ± 10%
Velvetleaf [11]; [16]
  % control 19 days after treatment, 560 g/ha, Velvetleaf: 91 ± 7%

## COc1ccc(C(=O)COC(=O)c2c(Cl)ccc(Cl)c2OC)cc1 [Ester 9, 4-methoxyphenacyl methyl ester of dicamba]
[12]; THF, 0.1 mM ester, initial solution kept away from the light source, analyzed at conclusion of study
  Dark Control % dicamba: 1%
[12]; THF, 0.1 mM ester, simulated sunlight 14 hours per day, 35° C., 1 day
  Conversion to dicamba, 1 day: 76%
[12]; THF, 0.1 mM ester, simulated sunlight 14 hours per day, 35° C., 2 days
  Conversion to dicamba, 2 days: 91%
[12]; THF, 0.1 mM ester, simulated sunlight 14 hours per day, 35° C., 3 days
  Conversion to dicamba, 3 days: 90%
[12]; THF, 0.1 mM ester, simulated sunlight 14 hours per day, 35° C., 5 days
  Conversion to dicamba, 5 days: 89%
[12]; THF, 0.1 mM ester, simulated sunlight 14 hours per day, 35° C., 7 days
  Conversion to dicamba, 7 days: 89%
[12]; in vitro studies
  photo-efficiency of dicamba generation: ~100%
Velvetleaf [1]
  % Control of velvetleaf, 140 g/ha: 23%
  % Control of velvetleaf, 280 g/ha: 19%
  % Control of velvetleaf, 420 g/ha: 28%
  % Control of velvetleaf, 560 g/ha: 29%
Hemp sesbania [6]; [17]
  post-emergent control of hemp sesbania compared with the dicamba salt, in words: equivalent to the dicamba salt
Hemp sesbania [6]
  % control, 280 g/ha, Hemp sesbania: 86%
  % control, 420 g/ha, Hemp sesbania: 93%
Morning glory [7]; [17]
  post-emergent control of morning glory compared with the dicamba salt, in words: equivalent to the dicamba salt
Morning glory [7]
  % control, 280 g/ha, Morning glory: 98%
  % control, 420 g/ha, Morning glory: 100%
Velvetleaf [8]; [17]
  post-emergent control of velvetleaf compared with the dicamba salt, in words: nearly equivalent to the dicamba salt
Velvetleaf [8]
  % control, 280 g/ha, Velvetleaf: 79%
  % control, 420 g/ha, Velvetleaf: 80%
Euphorbia species
  % control, 0.25 lb/ac (0.28 kg/hectare): 54%
  % control, 0.50 lb/ac (0.56 kg/hectare): 62%
[13]
  solubility, in words: relatively insoluble
[14]
  photolysis / photo-release of dicamba, in words: efficient photo-release of 9 in a suspension concentrate formulation occurs over several weeks
Broadleaf weeds
  control of a number of broadleaf weeds in field testing, in words: proven effective
